Laboratory results reported in ChEMBL document CHEMBL4138233, “Purine analogs targeting the guanine riboswitch as potential antibiotics against Clostridioides difficile” (Eur J Med Chem, 2018).
≈ marks a conversion by molar mass, not a printed value. Calls of active or inactive are those of the source. No cut-off for these calls is given here.

What was measured:
[1] = Binding affinity to Clostridium difficile [5'-32P]guaA riboswitch by polyacrylamide gel electrophoresis method; design: species or system Clostridioides difficile
Clostridioides difficile [2] = experiment: Antibacterial activity against Clostridium difficile ATCC 700057 by broth microdilution method; type: functional
Clostridioides difficile [3] = experiment: Antibacterial activity against Clostridium difficile ATCC 700057 up to 5000 ug/ml by broth microdilution method; type: functional, organism-based
[4] = Binding affinity to Bacillus subtilis guaA riboswitch
[5] = Binding affinity to Staphylococcus aureus [5'-32P]guaA riboswitch by polyacrylamide gel electrophoresis method

Row | SMILES | Kd [1] | MIC (Clostridioides difficile [2]) | Activity (Clostridioides difficile [3]) | Kd [4] | Kd [5]
1 | COc1ccc(CNc2nc(N)nc3[nH]cnc23)cc1 | 71.3 µM | 313 µg/mL (≈ 1.16 mM) |  |  | 
2 | Nc1nc(NCCCO)c2nc[nH]c2n1 | 0.63 µM |  | inactive |  | 
3 | CN(C)c1nc(N)nc2[nH]cnc12 | 48.3 µM |  | inactive |  | 
4 | Nc1nc(O)c2ncn(Cc3ccccc3)c2n1 | > 1000 µM |  | inactive |  | 
5 | COCCCNc1nc2[nH]cnc2c(=O)[nH]1 | 2.2 µM |  | inactive |  | 
6 | O=c1[nH]c(NCCc2ccc(O)cc2)nc2[nH]cnc12 | > 1000 µM | 1250 µg/mL (≈ 4.61 mM) |  |  | 
7 | Nc1nc2snnc2c(=O)[nH]1 | > 1000 µM | 156 µg/mL (≈ 0.922 mM) |  |  | 
8 | O=C(O)CCCC(=O)Nc1nc2[nH]cnc2c(=O)[nH]1 | 0.45 µM |  | inactive |  | 
9 | O=C(NCCN1CCOCC1)Nc1nc2[nH]cnc2c(=O)[nH]1 | 27.6 µM | 1250 µg/mL (≈ 4.07 mM) |  |  | 
10 | O=c1[nH]c(NCc2ccccn2)nc2[nH]cnc12 | 24.4 µM |  | inactive |  | 
11 | CN(C)CCNC(=O)Nc1nc2[nH]cnc2c(=O)[nH]1 | 2.06 µM |  | inactive |  | 
12 | Nc1nc(NCc2ccc(F)cc2)c2nc[nH]c2n1 | 25.2 µM | 313 µg/mL (≈ 1.21 mM) |  |  | 
13 | Nc1nc2nsnc2c(=O)[nH]1 | > 1000 µM |  | inactive |  | 
14 | O=C(NCCO)Nc1nc2[nH]cnc2c(=O)[nH]1 | 2.67 µM |  | inactive |  | 
15 | O=C(Nc1nc2[nH]cnc2c(=O)[nH]1)N1CCCCC1 | 29.4 µM |  | inactive |  | 
16 | Nc1nc2[nH]cnc2c(=O)[nH]1 [GUANINE] | 0.002 µM |  |  | 0.005 µM | 
17 | O=c1[nH]c(NCCCO)nc2[nH]cnc12 | 9.8 µM |  | inactive |  | 
18 | CCCCNc1nc(O)c2[nH]cnc2n1 | 4 µM | 625 µg/mL (≈ 3.02 mM) |  |  | 
19 | CCCNc1nc(N)nc2[nH]cnc12 | 68.3 µM | 625 µg/mL (≈ 3.25 mM) |  |  | 
20 | CC(=O)Nc1nc(=O)c2[nH]cnc2[nH]1 | 1.05 µM |  | inactive |  | 
21 | CCC(=O)Nc1nc2[nH]cnc2c(=O)[nH]1 | 0.56 µM |  | inactive |  | 

Row | SMILES | Kd [1] | MIC (Clostridioides difficile [2]) | Activity (Clostridioides difficile [3]) | Kd [4] | Kd [5]
22 | Nc1nc(NCC2CC2)c2nc[nH]c2n1 | 68.9 µM | 312 µg/mL (≈ 1.53 mM) |  |  | 
23 | O=c1[nH]c(NC2CCCCC2)nc2[nH]cnc12 | 6.5 µM | 78 µg/mL (≈ 0.334 mM) |  |  | 
24 | NC(=O)Nc1nc2[nH]cnc2c(=O)[nH]1 | 21 µM |  | inactive |  | 
25 | NCCCNc1nc(N)nc2[nH]cnc12 | 0.32 µM |  | inactive |  | 
26 | Nc1nc(NC2CCC2)c2nc[nH]c2n1 | > 1000 µM | 1250 µg/mL (≈ 6.12 mM) |  |  | 
27 | Nc1nc(NC2CC2)c2nc[nH]c2n1 | 25 µM | 1250 µg/mL (≈ 6.57 mM) |  |  | 
28 | NCCNc1nc(N)nc2[nH]cnc12 | > 1000 µM |  | inactive |  | 
29 | Nc1nc2scnc2c(=O)[nH]1 | 7.4 µM |  | inactive |  | 
30 | CNC(=O)Nc1nc2[nH]cnc2c(=O)[nH]1 | > 1000 µM |  | inactive |  | 
31 | Cn1cnc2c(O)nc(N)nc21 [9-Methylguanine] | 8.1 µM |  | inactive |  | 
32 | O=C(Nc1nc2[nH]cnc2c(=O)[nH]1)N1CCOCC1 | 1.81 µM |  | inactive |  | 
33 | O=c1[nH]c(NCCc2c[nH]cn2)nc2[nH]cnc12 | 300 µM | 1250 µg/mL (≈ 5.1 mM) |  |  | 
34 | Nc1nc2nnccc2c(=O)[nH]1 | > 1000 µM |  | inactive |  | 
35 | CNc1nc2[nH]cnc2c(=O)[nH]1 | > 1000 µM |  | inactive |  | 
36 | Nc1nc2ncsc2c(=O)[nH]1 | > 1000 µM | 78 µg/mL (≈ 0.464 mM) |  |  | 
37 | O=c1[nH]c(NC2CCC2)nc2[nH]cnc12 | 2.4 µM | 1250 µg/mL (≈ 6.09 mM) |  |  | 
38 | Nc1nc(NCc2ccccc2)c2[nH]cnc2n1 | 0.93 µM |  | inactive |  | 
39 | Nc1nc(N)c(N)c(=O)[nH]1 |  |  |  |  | 0.1 µM
40 | CN(C)C(=O)Nc1nc2[nH]cnc2c(=O)[nH]1 | 16.4 µM | 1250 µg/mL (≈ 5.63 mM) |  |  | 
41 | CCCCNc1nc(N)nc2[nH]cnc12 | 12.3 µM | 313 µg/mL (≈ 1.52 mM) |  |  | 
42 | Nc1nc(NCc2cccnc2)c2nc[nH]c2n1 | > 1000 µM | 625 µg/mL (≈ 2.59 mM) |  |  | 
